Laboratory results taken from patent publication US11192849B2, “Compounds, compositions, and methods for modulating ferroptosis and treating excitotoxic disorders” (THE TRUSTEES OF COLUMBIA UNIVERSITY IN THE CITY OF NEW YORK, priority 2013, dated 2021).

Tests used:
[1] = test system: C57BL/6 mice, kidney ischemia-reperfusion injury; assay: Kidney model of ischemia-reperfusion injury (IRI); format: in vivo
Description: As an initial in vivo study, the effects of Fer-1 and SRS16-86 on serum creatinine, a marker of kidney damage, were evaluated in an ischemia reperfusion injury (IRI) model of kidney failure (FIG. 21).
Organs were dissected as indicated in each experiment and infused with 4% (vol/vol) neutral-buffered formaldehyde, fixated for 48 h, dehydrated in a graded ethanol series and xylene, and finally embedded in paraffin. Stained sections were analyzed using an Axio Imager microscope (Zeiss). Kidney damage was quantified by two experienced pathologists in a double-blind manner on a scale ranging from 0 (unaffected tissue) to 10 (severe organ damage). The following parameters were chosen as indicative of morphological damage to the kidney after ischemia-reperfusion injury (IRI): brush border loss, red blood cell extravasation, tubule dilatation, tubule degeneration, tubule necrosis, and tubular cast formation. These parameters were evaluated on a scale of 0-10, which ranged from not present (0), mild (1-4), moderate (5 or 6), severe (7 or 8), to very severe (9 or 10). Each parameter was determined on at least four different animals.
Induction of kidney IRI was performed via a midline abdominal incision and a bilateral renal pedicle clamping for either 40 min (severe IRI, or “lethal-to-WT” IRI) or 50 min (ultra-severe IRI) using microaneurysm clamps (Aesculab). Throughout the surgical procedure, the body temperature was maintained between 36° C. and 37° C. by continuous monitoring using a temperature-controlled self-regulated heating system (Fine Science Tools). After removal of the clamps, reperfusion of the kidneys was confirmed visually. The abdomen was closed in two layers using standard 6-0 sutures. Sham-operated mice underwent the identical surgical procedures, except that microaneurysm clamps were not applied. To maintain fluid balance, all of the mice were supplemented with 1 mL of prewarmed PBS administered intraperitoneally directly after surgery. All mice were killed 48 h after reperfusion for each experiment. […] All ischemia-reperfusion experiments were performed in a double-blinded manner.

[2] = test system: mice, CaOx-induced nephropathy; assay: Acute oxalate nephropathy model; format: in vivo, mouse; settings: Ferrostatin-1 10 mg/kg i.p.
Description: Mice were divided into two groups. One group received vehicle injections and another group received Ferrostatin-1 (10 mg/kg i.p.). Then, 15 min later, both groups were given a single i.p. injection of 100 mg/kg sodium oxalate and 3% sodium oxalate in drinking water. Blood samples and kidneys were harvested after 24 h. Kidneys were kept at −80° C. for protein isolation and at −20° C. for RNA isolation. One part of the kidney was also kept in formalin to be embedded in paraffin for histological analysis. Kidney sections (2 μm) were stained with periodic acid-Schiff (PAS) reagent. Tubular injury was scored by assessing the percentage of necrotic tubules. Ly6B.2+ neutrophils were identified by immunostaining (clone 7/4; Serotec). Pizzolato stain was used to visualize CaOx crystals, and crystal deposit formation in the kidney was evaluated as described previously (Mulay et al., 2013), using the following point values: 0, no deposits; 1, crystals in papillary tip; 2, crystals in cortical medullary junction; 3, crystals in cortex. […] Serum creatinine and blood urea nitrogen were measured using Creatinine FS kit and Urea FS kit (both from DiaSys Diagnostic Systems) according to the manufacturer's protocol. Neutrophil infiltrates were counted in 15 high-power fields (hpfs) per section. For real-time quantitative RT-PCR, total RNA was isolated from kidneys using a Qiagen RNA extraction kit following the manufacturer's instructions. After quantification, RNA quality was assessed using agarose gels. […] Real-time quantitative RT-PCR (TaqMan) was performed using SYBR-Green PCR master mix and analyzed with a Light Cycler 480 (Roche). […] The expression of KIM-1, IL-6, CXCL-2, and NF-κB p65 was analyzed using the following primers: Kim-1 forward, 5′-[…]-3′ (SEQ ID NO:17); Kim-1 reverse, 5′-[…]-3′ (SEQ ID NO:18); IL-6 forward, 5′-[…]-3′ (SEQ ID NO:19); IL-6 reverse, 5′-[…]-3′ (SEQ ID NO:20); CXCL-2 forward, 5′-[…]-3′ (SEQ ID NO:21); CXCL-2 reverse, 5′-[…]-3′ (SEQ ID NO:22); NF-κB p65 forward, 5′-[…]-3′ (SEQ ID NO:23); NF-κB p65 reverse, 5′-[…]-3′ (SEQ ID NO:24).

mice, LPS-induced shock = assay: LPS-induced lethal shock; format: in vivo, mouse; settings: Fer-1 5 mg/kg i.p. 30 min before LPS
Description: Mice were injected intraperitoneally (i.p.) with 15 mg/kg Escherichia coli O111:B4 LPS (Sigma-Aldrich). Mice were pretreated by an i.p. injection of 5 mg/kg ethyl 3-amino-4-(cyclohexylamino)benzoate (Fer-1; Matrix Scientific), 10 mg/kg [5-((7-Cl-1H-indol-3-yl)methyl)-3-methylimidazolidine2,4-dione] (Nec-1s; synthesized in house), a combination of Fer-1 and Nec-1s, or vehicle (1% DMSO in PBS) 30 min before the LPS challenge. Rectal body temperature and survival rates were monitored daily up to 96 h. Experiments were approved by the animal ethics committee of Ghent University.

[3] = 2,2-Diphenyl-1-picrylhydrazyl (DPPH) cell-free antioxidant assay; format: biochemical; settings: test compound 0.05 mM, 30 minutes
Description: The stable radical DPPH (Blois, 1958) was dissolved in methanol to a final working concentration of 0.05 mM. This was prepared as follows. First, a 100× stock concentration (5 mM) was prepared by dissolving 3.9 mg DPPH in 2 mL methanol. Then, for 25 mL of 0.05 mM final working solution, 250 μL of the 5 mM solution was added to 24.75 mL of methanol. 1 mL of DPPH solution was added to a small volume (<5 μL) each test compound dissolved in DMSO. The final concentration of each test compound was 0.05 mM. Samples were inverted several times and allowed to incubate at room temperature for 30 minutes. Samples were then aliquoted to white 96-well solid-bottom dishes (Corning) and absorbance at 517 nm was recorded using a TECAN M200 plate reader. All values were normalized to background (methanol only). The experiment was repeated three times and the data was averaged.
In parallel with the above cell-based assay, a 2,2-diphenyl-1-picrylhydrazyl (DPPH) assay was used to examine the ability of each analog to scavenge free radicals in a cell-free in vitro solution—a test of intrinsic antioxidant capacity. […] Redox active analogs scavenged the DPPH radical by 60-90% within 30 minutes (FIG. 18a).

CCOC(=O)c1ccc(NC2CCCCC2)c(N)c1 [SRS8-28 (Fer-1), ethyl 3-amino-4-(cyclohexylamino)benzoate]
serum creatinine in IRI model of kidney failure ([1]; 2 mg/kg IP 30 minutes prior to induction of IRI): effective
functional acute renal failure and structural organ damage after severe IRI ([1]; 40 min ischemia, 48 h after reperfusion, 2 mg/kg i.p.): protected from functional acute renal failure
neutrophil infiltration and expression of CXCL-2, IL-6, KIM-1, p65 [2]: statistically significantly reduced
serum creatinine and urea [2]: significantly reduced
tubular injury score [2]: significantly reduced
temperature drop and survival after LPS (mice, LPS-induced shock): no difference compared with vehicle-treated mice was evident
intrinsic antioxidant capability in the DPPH assay [3]: readily oxidized the stable radical
